In patent US20240398781A1, “SPIROCYCLIC CYCLIC MODULATORS OF CHOLESTEROL BIOSYNTHESIS AND THEIR USE FOR PROMOTING REMYELINATION” (GENENTECH, INC., priority 2021, published 2024):

How the values were obtained:
[1] = tested on: EBP (zymostenol accumulation in EpiSC-derived OPCs); experiment: GC/MS-based sterol profiling, zymostenol accumulation in OPCs; format: cell-based, mouse; settings: Mus musculus, 24 h, EpiSC-derived OPCs, 24 hr treatment, 8 doses from 0.15 nM to 333 nM; read-out: Zymostenol GCMS EC50
Method in brief: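 EpiSC-derived OPCs (100,000/well) were treated 24 h in N2B27 without growth factors. Sterols were TMS-derivatized and analysed by GC/MS full-scan EI, quantified against cholesterol-d7. Zymostenol was normalized to the level after 24 h with 100 nM positive control reference.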

human EBP = human EBP (Homo sapiens (Human), UniProt Q15125); experiment: Competition binding assay (SPA, [3H]-Ifenprodil) to determine compound affinity to EBP; settings: [3H]-Ifenprodil 10 nM, HEK293 membrane overexpressing human EBP, Ki=IC50/(1+[L]/Kd); read-out: hEBP SPA Ki
Method in brief: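 Membranes from HEK293 cells overexpressing human EBP, on SPA beads (0.3 mg beads, 5 µg membrane/well) in Tris/MgCl2/EDTA buffer pH 7.5 with 0.01% BSA and 0.1% DMSO, competed against [3H]-ifenprodil for 3 h to equilibrium. Compounds were tested at 1 µM single dose or 0.06 nM–5 µM; IC50 came from nonlinear fit, and Ki=IC50/(1+[L]/Kd).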

human EBP, sequence (Q15125 whole entry): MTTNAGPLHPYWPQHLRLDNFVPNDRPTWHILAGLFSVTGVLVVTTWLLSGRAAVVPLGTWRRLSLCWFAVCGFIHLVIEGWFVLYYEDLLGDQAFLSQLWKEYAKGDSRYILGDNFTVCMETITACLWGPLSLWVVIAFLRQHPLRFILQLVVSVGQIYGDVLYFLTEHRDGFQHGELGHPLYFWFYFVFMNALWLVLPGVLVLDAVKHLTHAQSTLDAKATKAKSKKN

Structure (SMILES): O=S1(=O)CC2(CCN([C@H]3CC[C@H](c4cc(C(F)(F)F)nn4C4CCC4)CC3)C2)C1 [Compound 23B, 6-((1r,4r)-4-(1-Cyclobutyl-3-(trifluoromethyl)-1H-pyrazol-5-yl)cyclohexyl)-2-thia-6-azaspiro[3.4]octane 2,2-dioxide]
- EC50 [1]: 9 nM
- Ki (human EBP): 21 nM

Structure (SMILES): O=S1(=O)CC2(CCN([C@H]3CC[C@H](c4cc(C(F)(F)F)n(C5CCC5)n4)CC3)C2)C1 [Compound 24, 6-((1r,4r)-4-(1-cyclobutyl-5-(trifluoromethyl)-1H-pyrazol-3-yl)cyclohexyl)-2-thia-6-azaspiro[3.4]octane 2,2-dioxide]
- EC50 [1]: 3 nM
- Ki (human EBP): 28 nM

Structure (SMILES): Cn1nc(C(F)(F)F)cc1[C@H]1CC[C@@H](N2CCC3(CC2)CS(=O)(=O)C3)CC1 [Compound 25A, 7-((1s,4s)-4-(1-Methyl-3-(trifluoromethyl)-1H-pyrazol-5-yl)cyclohexyl)-2-thia-7-azaspiro[3.5]nonane 2,2-dioxide]
- EC50 [1]: 43 nM
- Ki (human EBP): 110 nM

Structure (SMILES): Cn1nc(C(F)(F)F)cc1[C@H]1CC[C@H](N2CCC3(CC2)CS(=O)(=O)C3)CC1 [Compound 25B, 7-((1r,4r)-4-(1-methyl-3-(trifluoromethyl)-1H-pyrazol-5-yl)cyclohexyl)-2-thia-7-azaspiro[3.5]nonane 2,2-dioxide]
- EC50 [1]: 26 nM
- Ki (human EBP): 58 nM

Structure (SMILES): Cc1cc(C(F)(F)F)ncc1N1CCC(N2CCC3(C2)CS(=O)(=O)C3)CC1 [Compound 28, 6-(1-(4-Methyl-6-(trifluoromethyl)pyridin-3-yl)piperidin-4-yl)-2-thia-6-azaspiro[3.4]octane 2,2-dioxide]
- EC50 [1]: 7.5 nM
- Ki (human EBP): 33 nM

Structure (SMILES): Cc1nc(C(F)(F)F)ccc1N1CCC(N2CCC3(C2)CS(=O)(=O)C3)CC1 [Compound 29, 6-(1-(2-methyl-6-(trifluoromethyl)pyridin-3-yl)piperidin-4-yl)-2-thia-6-azaspiro[3.4]octane 2,2-dioxide]
- EC50 [1]: 7.1 nM
- Ki (human EBP): 45 nM

Structure (SMILES): O=S1(=O)CC2(CCN(C3CCN(c4ncc(C(F)(F)F)cc4Cl)CC3)C2)C1 [Compound 30, 6-(1-(3-chloro-5-(trifluoromethyl)pyridin-2-yl)piperidin-4-yl)-2-thia-6-azaspiro[3.4]octane 2,2-dioxide]
- EC50 [1]: 5 nM
- Ki (human EBP): 39 nM

Structure (SMILES): Cc1cc(F)cnc1N1CCC(N2CCC3(C2)CS(=O)(=O)C3)CC1 [Compound 31, 6-(1-(5-fluoro-3-methylpyridin-2-yl)piperidin-4-yl)-2-thia-6-azaspiro[3.4]octane 2,2-dioxide]
- EC50 [1]: 32 nM
- Ki (human EBP): 59 nM

Structure (SMILES): O=S1(=O)CC2(CCN(C3CCN(c4ncc(C(F)(F)F)cc4F)CC3)C2)C1 [Compound 32, 6-(1-(3-fluoro-5-(trifluoromethyl)pyridin-2-yl)piperidin-4-yl)-2-thia-6-azaspiro[3.4]octane 2,2-dioxide]
- EC50 [1]: 7 nM
- Ki (human EBP): 24 nM

Structure (SMILES): CC(C)n1nc(-c2cncc(OC(F)F)c2)cc1[C@H]1CC[C@H](N2CCC3(C2)CS(=O)(=O)C3)CC1 [Compound 33A, 6-((1r,4r)-4-(3-(5-(Difluoromethoxy)pyridin-3-yl)-1-isopropyl-1H-pyrazol-5-yl)cyclohexyl)-2-thia-6-azaspiro[3.4]octane 2,2-dioxide]
- EC50 [1]: 7.6 nM
- Ki (human EBP): 37 nM

Structure (SMILES): CC(C)n1nc(-c2cncc(OC(F)F)c2)cc1[C@H]1CC[C@@H](N2CCC3(C2)CS(=O)(=O)C3)CC1 [Compound 33B, (Cis)-6-(4-(3-(5-(Difluoromethoxy)pyridin-3-yl)-1-isopropyl-1H-pyrazol-5-yl)cyclohexyl)-2-thia-6-azaspiro[3.4]octane 2,2-dioxide]
- EC50 [1]: 9.8 nM
- Ki (human EBP): 33 nM

Structure (SMILES): CC(C)n1nc(N2CC(F)(F)C2)cc1[C@H]1CC[C@H](N2CCC3(C2)CS(=O)(=O)C3)CC1 [Compound 35, 6-((1r,4r)-4-(3-(3,3-Difluoroazetidin-1-yl)-1-isopropyl-1H-pyrazol-5-yl)cyclohexyl)-2-thia-6-azaspiro[3.4]octane 2,2-dioxide]
- EC50 [1]: 45 nM
- Ki (human EBP): 180 nM

Structure (SMILES): O=S1(=O)CC2(CCN([C@H]3CC[C@@H](c4cc(C(F)(F)F)nn4C4CC4)CC3)CC2)C1 [Compound 40A, 7-((1r,4r)-4-(1-cyclopropyl-3-(trifluoromethyl)-1H-pyrazol-5-yl)cyclohexyl)-2-thia-7-azaspiro[3.5]nonane 2,2-dioxide]
- EC50 [1]: 4 nM
- Ki (human EBP): 32 nM

Structure (SMILES): O=S1(=O)CC2(CCN([C@H]3CC[C@H](c4cc(C(F)(F)F)nn4C4CC4)CC3)CC2)C1 [Compound 40B, 7-((1s,4s)-4-(1-cyclopropyl-3-(trifluoromethyl)-1H-pyrazol-5-yl)cyclohexyl)-2-thia-7-azaspiro[3.5]nonane 2,2-dioxide]
- EC50 [1]: 17 nM
- Ki (human EBP): 47 nM

Structure (SMILES): Cc1cc(C(F)(F)F)cnc1[C@H]1CC[C@H](N2CCC3(C2)CS(=O)(=O)C3)CC1 [Compound 47B, 6-((1r,4r)-4-(3-methyl-5-(trifluoromethyl)pyridin-2-yl)cyclohexyl)-2-thia-6-azaspiro[3.4]octane 2,2-dioxide]
- EC50 [1]: 4.1 nM
- Ki (human EBP): 16 nM
